{"source": "patent US8865748B2", "about": "“Compounds and compositions for stabilizing hypoxia inducible factor-2 alpha as a method for treating cancer” (Akebia Therapeutics Inc., priority 2011, dated 2014)", "key": {"VEGF": {"tested_on": "VEGF", "test": "VEGF production by human peripheral blood monocytes (ELISA, real-time PCR)", "type": "cell-based", "conditions": "FIG. 11C", "protocol": "(§1) Human peripheral blood mononuclear cells (PBMCs) were isolated from fresh peripheral blood leukocyte source packs (American Red Cross, Columbus Ohio) by density gradient centrifugation over Lymphocyte Separation Medium (Cellgro). Monocytes were purified from total PBMCs by layering over FBS. Monocytes were cultured in endotoxin-free RPMI-1640 supplemented with 1% fetal bovine serum (FBS), 0.1% human serum albumin (HSA), and 10 μg/mL of the endotoxin inhibitor polymyxin B. In some experiments, freshly isolated monocytes were differentiated into macrophages by three-day culture in media containing 10% FBS, 1% PSA (penicillin G sodium, streptomycin sulfate, and amphotericin B), and 20 ng/mL M-CSF. Macrophages were serum-starved for 2 hours prior to stimulation. Monocytes or monocyte-derived macrophages were treated for 24 hours with 10 ng/mL GM-CSF, 10 μM disclosed HIF-2α stabilizer, or an equivalent volume of the vehicle controls (PBS or DMSO, respectively). Cell-free culture supernatants were harvested and analyzed for VEGF or sVEGFR-1 by ELISA (R&D Systems).\nHuman monocytes were left untreated or were stimulated with 100 ng/mL GM-CSF at normoxia or at 0.5% O2. At various time-points, cells were harvested in Trizol reagent (Invitrogen) and RNA was extracted in chloroform and then purified using the RNeasy Minikit (Qiagen). In murine studies, organs harvested at the time of euthanasia were flash-frozen in liquid nitrogen, pulverized in liquid nitrogen, and then dissolved in Trizol. cDNA was generated from 1 μg of RNA using the Superscript First Strand Synthesis System (Invitrogen) and used for real-time PCR using previously described primers and SYBR Green PCR Master Mix (Applied Biosciences), according to the manufacturer's instructions. Data were analyzed according to the comparative threshold method and normalized against the β-actin internal control transcript. Results are semi-quantitative and represent the fold difference in transcript levels in a particular sample as compared with levels in untreated cells from the same donor.\nVEGF protein was undetectable in the supernatants of GM-CSF-stimulated monocytes, due to neutralization of VEGF by sVEGFR-1 (FIG. 11C).\nSince monocyte production of VEGF was dependent on HIF-1α, the inventors herein determined whether selective stabilization of HIF-1α via inhibition of PHD2 would increase monocyte production of VEGF but not sVEGFR-1. In order to make such determination, human peripheral blood monocytes were stimulated with GM-CSF in the presence of a selective inhibitor of PHD2 which results in the stabilization of HIF-1α."}, "HIF-1α": {"tested_on": "HIF-1α", "test": "Immunoblot for HIF-1α in murine bone marrow-derived macrophages", "type": "cell-based", "conditions": "treated for 18 hours, FIG. 11A", "protocol": "To generate bone marrow-derived macrophages (BDMs), femoral bone marrow was isolated and progenitor cells were plated in RPMI-1640 supplemented with 10% FBS, 1% PSA, 10 μg/mL of polymyxin B, and 20 ng/mL of recombinant murine M-CSF. Cells were cultured for 5 days with the addition of fresh M-CSF every other day. Differentiated BDM were serum-starved for 2 hours and then treated with 100 ng/mL of murine GM-CSF and/or 25 μM the disclosed HIF-2α stabilizer in RPMI-1640 containing 1% FBS and 10 μg/mL polymixin B. Culture supernatants were collected after 72 hours and assayed for VEGF and sVEGFR-1 content by ELISA (R&D Systems).\nIn order to confirm the selective upregulation of HIF-2α by the disclosed HIF-2α stabilizer, murine bone marrow-derived macrophages were treated with the disclosed HIF-2α stabilizer for 18 hours, and cells were then lysed and immunoblotted for HIF-1α and HIF-2α."}, "tumor growth": {"tested_on": "tumor growth", "test": "Tumor growth in LysMcre control mice and mice with myeloid-specific deletion of HIF-2α", "type": "in vivo", "conditions": "FIG. 15", "source_text": "HIF-2α^flox/flox mice (originally developed by Dr. Celeste Simon, University of Pennsylvania) and LysMcre recombinase mice (originally developed by Irmgard Foerster, University of Duesseldorf) (both purchased from The Jackson Laboratory, Bar Harbor, Me.) were crossed to generate mice homozygous for both LysMcre and the floxed HIF-2α allele. LysMcre recombinase mice, which express no floxed alleles, were used as controls. Deletion of HIF-2α in HIF-2α^flox/flox/LysMcre macrophages, but not the LysMcre control macrophages, was confirmed at the transcript level by real-time PCR.\nThe disclosed HIF-2α stabilizer is not targeted specifically to macrophages, and will stabilize HIF-2α in all tissues, not only the tumor-associated macrophages. In order to determine the role of macrophages in the anti-tumor response to the disclosed HIF-2α stabilizer, mice with a myeloid-specific deletion of HIF-2α (HIF-2α^flox/flox/LysMcre mice) were utilized."}, "sVEGFR-1": {"tested_on": "sVEGFR-1", "test": "sVEGFR-1 production by human peripheral blood monocytes (ELISA, real-time PCR)", "type": "cell-based", "conditions": "monocytes stimulated with 100 ng/mL GM-CSF, presence vs. absence of 10 μM stabilizer, FIG. 11B", "protocol": "as §1\nHuman monocytes were left untreated or were stimulated with 100 ng/mL GM-CSF at normoxia or at 0.5% O2. At various time-points, cells were harvested in Trizol reagent (Invitrogen) and RNA was extracted in chloroform and then purified using the RNeasy Minikit (Qiagen). […] Data were analyzed according to the comparative threshold method and normalized against the β-actin internal control transcript. Results are semi-quantitative and represent the fold difference in transcript levels in a particular sample as compared with levels in untreated cells from the same donor.\nSince monocyte production of VEGF was dependent on HIF-1α, the inventors herein determined whether selective stabilization of HIF-1α via inhibition of PHD2 would increase monocyte production of VEGF but not sVEGFR-1. […]"}, "[1]": {"conditions": "mice with HIF-2α-deficient macrophages"}}, "data": [{"smiles": "O=C(O)CNC(=O)c1ncc(-c2cccc(F)c2)cc1O", "note": "[disclosed HIF-2α stabilizer, {[5-(3-Fluorophenyl)-3-hydroxypyridine-2-carbonyl]amino}acetic acid]", "values": [{"measurement": "VEGF production, transcript levels by real-time PCR", "setting": "VEGF; GM-CSF alone vs. GM-CSF and stabilizer, p=0.556", "result": "no difference"}, {"measurement": "production of VEGF protein (free VEGF ELISA)", "setting": "VEGF; same supernatants as sVEGFR-1, 10 μM stabilizer, p=0.133", "result": "did not significantly increase"}, {"measurement": "HIF-1α protein", "setting": "HIF-1α", "result": "no corresponding increase"}, {"measurement": "tumor growth", "setting": "tumor growth; LysMcre control mice", "result": "inhibited tumor growth"}, {"measurement": "magnitude of the anti-tumor response relative to control mice", "setting": "tumor growth; [1]", "result": "much less"}, {"measurement": "tumor growth", "setting": "tumor growth; [1]", "result": "reduced tumor growth"}, {"measurement": "sVEGFR-1 production, protein level", "setting": "sVEGFR-1; p=0.007", "result": "increased significantly"}, {"measurement": "sVEGFR-1 production, transcript level", "setting": "sVEGFR-1; p=0.033", "result": "increased significantly"}]}]}
